Laboratory results as given in patent US6815443B2, “5-Amino-1-pentene-3-ol substituted derivatives” (Gruenenthal GmbH, priority 2000, dated 2004).

Columns and labels:
[1] = tested on: phenylquinone-induced writhing in male NMRI mice; test: phenylquinone-induced writhing test in mice; assay type: in vivo
Protocol: The investigation of the analgesic efficacy was carried out according to the phenylquinone-induced writhing test in mice (as modified by I. C. Hendershot and J. Forsaith J. Pharmacol. Exp. Ther. 1959 125, 237-240). For this purpose male NMRI mice weighing 25 to 30 g were used. Groups of 10 animals per substance dose received, 10 minutes after intravenous administration of the test substances, 0.3 ml/mouse of a 0.02% aqueous solution of phenylquinone (phenyl benzoquinone, from Sigma, Deisenhofen; solution prepared by addition of 5% of ethanol and storage in a water bath at 45° C.) applied intraperitoneally. The animals were placed individually in observation cages. The number of pain-induced stretching movements (so-called writhing reactions=contortion of the body accompanied by stretching of the rear extremities) was counted using a push-button counter 5 to 20 minutes after administration of the phenylquinone. Animals that had received only physiological saline served as controls. The number of responding animals was determined for some of the examples.

gabapentin binding site = test: gabapentin binding assay (displacement of gabapentin from its binding site)
Protocol: Gabapentin is used in the binding assay in order to investigate the binding and affinities of the selected compounds. The affinity of the compounds according to the invention is measured via the displacement of gabapentin from its binding site.

SMILES | Responding Animals/Control Animals (Writhing IV) ([1]; 10 mg/kg) | % Inhibition gabapentin, 10 μmole (gabapentin binding site) | other results
CC(=Cc1ccccc1)C(O)(c1cccc(O)c1)C(C)CCN(C)C.Cl (centres unmarked) [Example 410, 3-[1-(2-dimethylaminomethyl-1-methylethyl)-1-hydroxy-2-methyl-3-phenyl-allyl]-phenol, hydrochloride] | 5/10 (10 mg/kg) | – | –
CC(=Cc1ccccc1)C(O)(Cc1ccc(Cl)cc1)C(C)CN(C)C.Cl (centres unmarked) [Example 411, 3-(4-chlorobenzyl)-5-dimethylamino-2,4-dimethyl-1-phenyl-pent-1-en-3-ol, hydrochloride] | 3/10 (10 mg/kg) | – | –
COc1cccc(CC(O)(C(C)=Cc2ccc(Cl)cc2)C(C)CN(C)C)c1 (centres unmarked) [Example 223, 1-(4-chlorophenyl)-5-dimethylamino-3-(3-methoxybenzyl)-2,4-dimethyl-pent-1-en-3-ol] | – | 40% | –
COc1cccc(C(O)(C(C)=Cc2ccccc2)C(C)CN(C)C)c1.Cl (centres unmarked) [Example 412, 5-dimethylamino-3-(3-methoxyphenyl)-2,4-dimethyl-1-phenyl-pent-1-en-3-ol, hydrochloride] | 9/10 (10 mg/kg) | – | –
CC(=Cc1ccccc1)C(O)(c1ccccc1)C(C)CN(C)C (centres unmarked) [Example 120, 5-dimethylamino-2,4-dimethyl-1,3-diphenyl-pent-1-en-3-ol] | – | 37% | –
COc1cccc(CC(O)(C(C)=Cc2ccc(F)cc2)C(C)CN(C)C)c1 (centres unmarked) [Example 184, 5-dimethylamino-1-(4-fluorophenyl)-3-(3-methoxybenzyl)-2,4-dimethyl-pent-1-en-3-ol] | – | 47% | –
COc1ccc(C2(O)C(=Cc3cccc(OC)c3)CCCCC2CN(C)C)cc1 (centres unmarked) [Example 369, 2-dimethylaminomethyl-7-(3-methoxybenzylidene)-1-(4-methoxyphenyl)-cycloheptanol] | – | 43% | –
CC(=Cc1ccccc1)C(O)(Cc1cccc(Cl)c1)C(C)CN(C)C (centres unmarked) [Example 156, 3-(3-chlorobenzyl)-5-dimethylamino-2,4-dimethyl-1-phenyl-pent-1-en-3-ol] | – | 46% | –
CN(C)CC1CCCC(=Cc2ccccc2)C1(O)c1cccc(O)c1.Cl (centres unmarked) [Example 413, 3-(2-benzylidene-6-dimethylaminomethyl-1-hydroxycyclohexyl)-phenol, hydrochloride] | 4/10 (10 mg/kg) | – | –
COc1cccc(C=C2CCCCC(CN(C)C)C2(O)c2cccc(O)c2)c1.Cl (centres unmarked) [Example 408, 2-dimethylaminomethyl-1-(3-hydroxyphenyl)-7-(3-methoxy-benzylidene)-cycloheptanol, hydrochloride] | 9/10 (10 mg/kg) | – | –
COc1cccc(C=C2CCCCC(CN(C)C)C2(O)c2ccc(Cl)cc2)c1 (centres unmarked) [Example 353, 1-(4-chlorophenyl)-2-dimethylaminomethyl-7-(3-methoxy-benzylidene)-cycloheptanol] | – | 44% | –
CC(=Cc1ccccc1)C(O)(Cc1cccc(C)c1)C(C)CN(C)C (centres unmarked) [Example 152, 5-dimethylamino-2,4-dimethyl-3-(3-methylbenzyl)-1-phenyl-pent-1-en-3-ol] | – | 30% | –
CN(C)CC1CCCCC(=Cc2ccccc2)C1(O)c1cccc(O)c1.Cl (centres unmarked) [Example 407, 2-benzylidene-7-dimethylaminomethyl-1-(3-hydroxyphenyl)-cycloheptanol, hydrochloride] | – | – | Responding Animals/Control Animals (Writhing IV) ([1]; 2.15 mg/kg): 6/10 (2.15 mg/kg)
COc1cccc(C2(O)C(=Cc3ccccc3)CCCCC2CN(C)C)c1.Cl (centres unmarked) [Example 409, 2-benzylidene-7-dimethylaminomethyl-1-(3-methoxyphenyl)-cycloheptanol, hydrochloride] | 5/10 (10 mg/kg) | – | –
